Test results as given in BigSolDB 2.1.

CNC(=O)c1cc(Oc2ccc(NC(=O)Nc3ccc(Cl)c(C(F)(F)F)c3)cc2)ccn1
solubility (mole fraction)
Conditions | 283.15 K | 293.15 K | 303.15 K | 313.15 K | 323.15 K | 333.15 K
in isobutanol | 0.000253 | 0.000379 | 0.000715 | 0.00104 | 0.00155 | 0.00216
in isopropanol | 0.000509 | 0.000638 | 0.00104 | 0.00152 | 0.00226 | 0.00325
in n-butanol | 0.000645 | 0.000816 | 0.0013 | 0.00193 | 0.00288 | 0.00417
in n-pentanol | 0.000599 | 0.000819 | 0.00122 | 0.00173 | 0.00256 | 0.00377
in n-propanol | 0.000678 | 0.000888 | 0.00137 | 0.00204 | 0.00313 | 0.00456

CNC(=O)c1cc(Oc2ccc(NC(=O)Nc3ccc(Cl)c(C(F)(F)F)c3)cc2)ccn1.Cc1ccc(S(=O)(=O)O)cc1
solubility (mole fraction)
Conditions | 283.15 K | 293.15 K | 303.15 K | 313.15 K | 323.15 K | 333.15 K
in isobutanol | 6.18e-05 | 9.67e-05 | 0.000149 | 0.000216 | 0.000284 | 0.000423
in isopropanol | 7.81e-05 | 0.000109 | 0.00016 | 0.000229 | 0.000311 | 0.000442
in n-butanol | 0.000132 | 0.000163 | 0.000238 | 0.000316 | 0.000419 | 0.000541
in n-pentanol | 5.78e-05 | 8.76e-05 | 0.000148 | 0.000209 | 0.000272 | 0.000394
in n-propanol | 0.000139 | 0.000175 | 0.000258 | 0.000344 | 0.000456 | 0.000622
